Literature values, collected in patent US10016426B2, “Pharmaceutical compositions for substituted quinazolinones” (Resverlogix Corp., priority 2011, dated 2018).

How the values were obtained:
[1] = following oral administration; Gugler et al. (1975)
HDL-C level = settings: subjects with low HDL-C; Rubins et al. (1999)

Row | Compound | intestinal absorption [1] | increase in the HDL-C level (HDL-C level) [%] | reduction of the CHD risk (HDL-C level) [%]
1 | O=c1c(O)c(-c2ccc(O)c(O)c2)oc2cc(O)cc(O)c12 [quercetin] | less than 1% |  | 
2 | Cc1ccc(C)c(OCCCC(C)(C)C(=O)O)c1 [gemfibrozil] |  | 6 | 22
